ChEMBL document CHEMBL1201862, “PubChem BioAssay data set” (2004)
Active and inactive are the calls of the source.

Columns and labels:
SN12K1 = assay: cells; type: functional; conditions: Homo sapiens, SN12K1
P388/ADR = assay: cells; type: functional; conditions: Mus musculus, P388/ADR
[1] = target: T1, Ubiquitin-conjugating enzyme E2 N (Homo sapiens, UniProt P61088); type: functional;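 note: Dose-response confirmation in a TR-FRET assay detecting UBC13-driven polyubiquitin chain formation, inhibition measured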
T1 sequence (P61088 whole entry): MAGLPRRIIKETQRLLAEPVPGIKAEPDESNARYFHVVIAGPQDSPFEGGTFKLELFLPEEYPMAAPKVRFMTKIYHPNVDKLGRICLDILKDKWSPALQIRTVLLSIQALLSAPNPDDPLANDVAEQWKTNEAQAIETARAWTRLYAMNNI

[2] = target: T2, DNA repair and recombination protein RAD54-like (Homo sapiens, UniProt Q92698); assay: RAD54 Holliday junction migration blockers – biochemical, fluorescence, cherry-picked samples, dose series, confirmation (AID 651657); type: functional
T2 sequence (Q92698 whole entry): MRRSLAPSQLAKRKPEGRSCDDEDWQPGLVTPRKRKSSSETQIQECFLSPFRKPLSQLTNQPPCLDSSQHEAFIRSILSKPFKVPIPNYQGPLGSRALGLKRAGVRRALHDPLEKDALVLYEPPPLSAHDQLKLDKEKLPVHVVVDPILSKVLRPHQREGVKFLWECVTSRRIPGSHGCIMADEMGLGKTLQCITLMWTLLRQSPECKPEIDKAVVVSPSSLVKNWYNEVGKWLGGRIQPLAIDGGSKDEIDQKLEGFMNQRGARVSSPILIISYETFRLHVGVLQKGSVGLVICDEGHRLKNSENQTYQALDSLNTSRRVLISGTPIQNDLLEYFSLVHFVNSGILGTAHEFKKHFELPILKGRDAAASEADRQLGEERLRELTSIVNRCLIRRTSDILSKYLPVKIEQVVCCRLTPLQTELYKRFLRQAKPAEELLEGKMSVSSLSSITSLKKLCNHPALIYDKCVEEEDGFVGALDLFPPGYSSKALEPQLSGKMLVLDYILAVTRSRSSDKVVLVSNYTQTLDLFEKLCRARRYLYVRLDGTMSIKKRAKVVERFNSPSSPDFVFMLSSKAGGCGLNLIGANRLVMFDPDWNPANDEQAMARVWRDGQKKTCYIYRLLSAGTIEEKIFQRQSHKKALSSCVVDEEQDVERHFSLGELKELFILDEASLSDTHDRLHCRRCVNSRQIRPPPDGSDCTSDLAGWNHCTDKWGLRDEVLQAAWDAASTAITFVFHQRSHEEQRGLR

HeLa = assay: ATP-based viability loss in HeLa cells – cell-based, CellTiter-Glo luminescence, cherry-pick samples, cytotoxicity control for MITF activator project, dose response (AID 540259); type: functional; conditions: Homo sapiens
[3] = blockers of HIV-1 envelope-mediated cell-cell fusion – cherry-pick, dose response (AID 652057); type: functional, cell-based
[4] = off-target signal loss in HeLa-CEM21 co-culture – HeLa F-luc CTL cells, cherry-picked, counter-screen for HIV-1 Env fusion inhibitor project, dose response (AID 652040); type: functional, cell-based;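 note: potency for signal decrease marking cytotoxic or nonspecific inhibition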
[5] = blockers of HIV-1 ZM109 envelope-driven cell-cell fusion – HeLa effector, CEM target cells, luciferase, cherry-pick, dose response (AID 652058); type: functional, cell-based;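 note: luciferase signal from HIV-1 Env mediated cell-cell fusion of effector and target cells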
Leucine aminopeptidase = target: T3, Leucine aminopeptidase (Plasmodium falciparum 3D7, UniProt Q8IL11); assay: P. falciparum M17LAP inhibitors, primary screen, biochemical, fluorogenic H-Leu-NHMec substrate, 1536-well (AID 1619); type: functional
T3 sequence (Q8IL11 whole entry): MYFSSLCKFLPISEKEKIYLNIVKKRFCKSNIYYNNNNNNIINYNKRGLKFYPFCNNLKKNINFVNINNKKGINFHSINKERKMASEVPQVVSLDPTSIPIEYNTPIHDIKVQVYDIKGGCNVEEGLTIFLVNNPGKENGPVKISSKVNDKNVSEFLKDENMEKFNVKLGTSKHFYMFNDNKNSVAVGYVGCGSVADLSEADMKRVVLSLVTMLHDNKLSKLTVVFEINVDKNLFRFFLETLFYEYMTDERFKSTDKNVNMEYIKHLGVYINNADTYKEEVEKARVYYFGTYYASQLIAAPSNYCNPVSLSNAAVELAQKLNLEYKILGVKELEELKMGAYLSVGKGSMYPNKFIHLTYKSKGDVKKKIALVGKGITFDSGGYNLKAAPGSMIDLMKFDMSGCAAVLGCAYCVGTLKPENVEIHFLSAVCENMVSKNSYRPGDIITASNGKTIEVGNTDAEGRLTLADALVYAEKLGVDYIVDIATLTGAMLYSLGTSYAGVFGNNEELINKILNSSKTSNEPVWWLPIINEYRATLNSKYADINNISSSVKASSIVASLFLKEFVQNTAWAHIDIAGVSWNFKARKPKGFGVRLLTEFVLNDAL

[6] = HIV-1 AD8 envelope cell-cell fusion blockers – cherry-pick, dose response (AID 652062); type: functional, cell-based;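 note: luciferase signal from cell-cell fusion driven by HIV-1 clade B AD8 Env; potency is for inhibitors of fusion seen as a drop in luminescence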
[7] = target: T4, Zinc finger protein mex-5 (Caenorhabditis elegans, UniProt Q9XUB2); assay: potency of MEX-5 RNA-binding blockers – biochemical, C. elegans, fluorescence polarization, dose response (AID 1960)
T4 sequence (Q9XUB2 whole entry): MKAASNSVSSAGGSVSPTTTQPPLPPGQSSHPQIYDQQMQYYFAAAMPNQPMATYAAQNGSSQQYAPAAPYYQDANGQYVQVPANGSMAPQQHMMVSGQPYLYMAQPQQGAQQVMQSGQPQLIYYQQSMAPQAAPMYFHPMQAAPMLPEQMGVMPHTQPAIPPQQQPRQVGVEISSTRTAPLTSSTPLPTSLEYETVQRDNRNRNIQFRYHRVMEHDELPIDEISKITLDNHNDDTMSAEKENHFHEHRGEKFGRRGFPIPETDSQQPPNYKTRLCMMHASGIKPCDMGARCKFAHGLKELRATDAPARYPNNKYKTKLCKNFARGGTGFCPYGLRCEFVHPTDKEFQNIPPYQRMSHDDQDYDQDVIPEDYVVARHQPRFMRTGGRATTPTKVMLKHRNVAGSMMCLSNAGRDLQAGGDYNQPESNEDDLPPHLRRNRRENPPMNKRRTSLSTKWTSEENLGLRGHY

[8] = target: T5, RNA-binding protein pos-1 (Caenorhabditis elegans, UniProt G5EF15); assay: disruptors of C. elegans POS-1 RNA interaction – biochemical, fluorescence polarization, dose response (AID 1964);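 note: purified POS-1 fused to maltose binding protein made in E. coli; potency of compounds blocking POS-1 binding to fluorescent RNA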
T5 sequence (G5EF15 whole entry): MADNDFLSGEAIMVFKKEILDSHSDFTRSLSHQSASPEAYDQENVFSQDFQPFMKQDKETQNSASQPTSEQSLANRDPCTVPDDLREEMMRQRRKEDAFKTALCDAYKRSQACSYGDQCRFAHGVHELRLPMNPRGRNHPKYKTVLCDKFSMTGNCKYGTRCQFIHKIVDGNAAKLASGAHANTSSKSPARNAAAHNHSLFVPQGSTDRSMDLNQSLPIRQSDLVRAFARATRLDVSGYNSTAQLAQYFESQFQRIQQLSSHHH

[9] = HPDE-C7 pancreatic duct cell viability loss – fluorescence, HTS (AID 430); type: functional, cell-based; conditions: Homo sapiens
[10] = viability loss of HPDE-C7K cells – cell-based, fluorescence, HTS, primary screen (AID 431); type: functional; conditions: Homo sapiens
[11] = Luminescence Cell-Based Dose Retest to Confirm Inhibitors of Cancer Stem Cells. [Related pubchem assays (depositor defined):AID2717, AID2721]; type: functional; conditions: Homo sapiens
[12] = target: T6, Heat shock factor protein 1 (Mus musculus, UniProt P38532); assay: decrease of HSF1-responsive luciferase luminescence – cell-based, NIH3T3, dose retest, confirmation (AID 2382); type: functional;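 note: NIH3T3 fibroblasts with HSF1-driven luciferase reporter stressed by proteasome inhibitor MG132; luminescence from HSF1-driven luciferase expression after 8 hours of MG132 stress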
T6 sequence (P38532 whole entry): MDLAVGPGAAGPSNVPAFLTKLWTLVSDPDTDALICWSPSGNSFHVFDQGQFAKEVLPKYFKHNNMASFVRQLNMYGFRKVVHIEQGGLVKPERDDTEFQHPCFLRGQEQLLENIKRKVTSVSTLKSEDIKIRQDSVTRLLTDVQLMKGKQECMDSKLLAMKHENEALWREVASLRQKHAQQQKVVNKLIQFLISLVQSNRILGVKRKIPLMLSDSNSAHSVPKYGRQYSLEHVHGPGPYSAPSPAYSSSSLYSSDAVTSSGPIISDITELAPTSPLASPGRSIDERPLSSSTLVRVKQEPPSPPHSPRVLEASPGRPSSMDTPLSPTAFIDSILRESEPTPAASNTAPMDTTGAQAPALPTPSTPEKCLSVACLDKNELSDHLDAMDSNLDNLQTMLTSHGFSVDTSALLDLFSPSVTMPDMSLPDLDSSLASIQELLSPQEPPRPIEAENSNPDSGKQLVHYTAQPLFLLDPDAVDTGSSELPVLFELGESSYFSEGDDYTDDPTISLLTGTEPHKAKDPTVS

[13] = Luminescence Cell-Based Dose Response HTS to Identify Inhibitors of 5'UTR Stem-Loop Driven Prion Protein mRNA Translation in H4 Neuroglioblastoma Cells. [Related pubchem assays: 1827 (Project Summary), 1813 (Primary HTS)]; type: functional
[14] = alpha-synuclein stem-loop luciferase translation blockers – H4 neuroglioma cells, luminescence, confirmation (AID 1988); type: functional, cell-based
[15] = non-specific 3'UTR reporter inhibition in Clone20-Shn3RL – cell-based, Renilla luciferase, cherry-picked, counter-screen for Shn3 inhibitor project, dose response (AID 624133); type: functional
[16] = luciferase reporter signal suppression in cells – H4 neuroglioma cells, luminescence, dose response (AID 1990); type: functional, cell-based
[17] = loss of viability in HepG2 cells – cell-based, CellTiter-Glo, cherry-picked, cytotoxicity control for Shn3 inhibitor project, dose response (AID 624134); type: functional
INS1 = assay: INS-1E survival protection against cytokine death – cell-based, luminescence, retest, dose response (AID 449756); type: functional; conditions: Rattus norvegicus;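 note: cell death triggered by IL-1 beta plus TNF-alpha plus IFN-gamma mixture; protective hits raise ATP signal compared with cytokine alone wells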
[18] = reduction of Shn3 3'UTR-driven luciferase in osteoblasts – cell-based, Clone20 osteoblasts, firefly luciferase, cherry-picked, dose response (AID 624132); type: functional;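 note: firefly luciferase luminescence from reporter carrying the Shn3 3'UTR in osteoblasts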

O=NN(CCCl)C(=O)NC1CCC(CC2CCC(NC(=O)N(CCCl)N=O)CC2)CC1 (stereo unspecified)
GI50 (SN12K1): 0.385 µM (active)
GI50 (P388/ADR): 1.64 µM (inactive)

CCn1c(=O)c2cc(C(=O)NCCN(C)C)sc2c2ccccc21
IC50 [1]: > 20 µM (inactive)
AC50 [2]: 30.7 µM (active)

CCn1cc(C(=O)NCCN(C)C)c(=O)c2cc(F)c(N3CCN(C)CC3)cc21
AC50 [2]: 21.1 µM (active)

C=CCC1(CC=C)CCCN1C(=O)C1CCC(=O)N(CCc2ccccc2)C1 (stereo unspecified)
AC50 (HeLa): 93 µM (active)

Cc1ccc(-c2cc(-c3ccc(C)cc3O)[nH]n2)cc1
AC50 (HeLa): 44.6 µM (active)

COc1ccc(-c2csc(-n3cccn3)n2)cc1
AC50 (HeLa): 33.9 µM (active)

COc1ccccc1CN1C(=O)CN(C2CCCCCC2)C(=O)C1c1ccc(F)cc1 (stereo unspecified)
AC50 [3]: 30.9 µM (active)
AC50 [4]: 60.9 µM (active)
AC50 [5]: 20.9 µM (active)

CC(C)=NN=C(N)NC(=S)Nc1ccc(C)cc1
IC50 (Leucine aminopeptidase): 59.3 µM (active)

CC(C)N1CCc2c(sc(NC(=O)c3ccc(C(=O)c4ccccc4)cc3)c2C(N)=O)C1
AC50 [2]: 68.7 µM (active)

COc1ccc(N2C(=O)NC(=O)/C(=C(/C)NCCCn3ccnc3)C2=O)cc1
AC50 [3]: 2.49 µM (active)
AC50 [4]: 19.5 µM (active)
AC50 [6]: 6.76 µM (active)
AC50 [5]: 4.33 µM (active)

CCOC(=O)c1cc(=O)n2nc(-c3ccccc3F)nc2s1
IC50 (Leucine aminopeptidase): 31.2 µM (active)
EC50 [7]: > 300 µM (not active)
EC50 [8]: > 300 µM (not active)

CCCCNC(=S)Nc1ccc2cn[nH]c2c1
IC50 (Leucine aminopeptidase): 75.6 µM (active)

CC(C)Cn1nc(NS(=O)(=O)c2ccccc2)c2cc3ccccc3nc21
EC50 [9]: > 20 µM (not active)
EC50 [10]: > 20 µM (not active)

CC(=O)c1sc(NC(=O)c2ccc3c(c2)OCO3)nc1C
AC50 (HeLa): 51.5 µM (active)

NS(=O)(=O)c1ccc(NC=C2C(=O)N(C3CCCCC3)C(=O)N(C3CCCCC3)C2=O)cc1
EC50 [9]: 5.47 µM (active)
AC50 [11]: 3.92 µM (active)
EC50 [10]: 5.81 µM (active)

Cc1cc2c3c(c1)C1(SCC(=O)N1c1ccc(F)cc1)C(=O)N3C(C)(C)CC2C (stereo unspecified)
AC50 [3]: 3.4 µM (active)
AC50 [4]: > 32 µM (inactive)
AC50 [6]: 9.73 µM (active)

c1csc(-c2noc(COc3ccc4c(c3)CCCC4)n2)c1
AC50 (HeLa): > 350 µM (inactive)

CCOC(=O)c1c(NC(=O)c2ccc(-n3cnnn3)cc2)sc2c1CCCC2
EC50 [9]: > 20 µM (not active)
EC50 [10]: > 20 µM (not active)

CC(C)c1ccc(NC2=NN=C(c3cccs3)CS2)cc1
AC50 (HeLa): 63.8 µM (active)

O=C(N/N=C\c1cccc(Cl)c1)c1[nH]nc2c1CCCC2
AC50 (HeLa): > 350 µM (inactive)

CC[C@H]1CN2CCc3cc(OC)c(OC)cc3[C@@H]2C[C@@H]1C[C@H]1NCCc2cc(OC)c(OC)cc21
EC50 [12]: < 0.16 µM (active)
EC50 [13]: < 0.1 µM (active)
EC50 [9]: 0.15 µM (active)
EC50 [14]: < 0.1 µM (active)
AC50 [15]: 0.33 µM (active)
EC50 [16]: < 0.1 µM (active)
EC50 [10]: 0.09 µM (active)
AC50 [17]: 40.5 µM (active)
AC50 (INS1): 2.35 µM (active)
AC50 [18]: < 0.26 µM (active)

CCOc1ccc2[nH]c3c(NCCN(C)C)ncnc3c2c1
AC50 [2]: 55.6 µM (active)
